Measurements from patent publication US7615361B2, “Toxicity screening methods” (Ceetox, Inc., priority 2006, dated 2009).

Columns and labels:
MTT reduction = assay type: cell-based; details: read-out: MTT TC50
Method: Tetrazolium Dye Reduction: 3-[4,5-dimethylthiazol-2-yl]
Dosing solutions were prepared in complete culture medium.

[1] = Intracellular total glutathione (GSH); details: human
Method: (§1) Intracellular Glutathione (GSH) Levels: Intracellular glutathione levels were determined essentially as described by Griffith (1980) with modifications. At the end of the exposure period, the medium was removed from the cells and metaphosphoric acid (MPA) was added to each well. Plates were then shaken for 5 min at room temperature and stored at −20° C. until needed.
(§2) The sample plates were thawed just prior to analysis and centrifuged at >2000×g for at least 2 min. Sample aliquots were removed and transferred to a clean 96-well plate along with appropriate standard curve controls. Sample pH was neutralized just prior to analysis and each well received an aliquot of sodium phosphate reaction buffer containing EDTA, DTNB, NADPH, and glutathione reductase. The plates were mixed for 15-30 min at room temperature and glutathione content was determined calorimetrically with a Packard Fusion or equivalent reader at 415 nm.
(§3) Intracellular Glutathione (GSH) Levels: The assay is based on the concept that all GSH is oxidized to GSSG by DTNB reagent. Two molecules of GSH are required to make one molecule of GSSG. Total GSH was determined by reducing GSSG to 2GSH with glutathione reductase. A standard curve was prepared with oxidized glutathione (GSSG) over a range of concentrations. These concentrations are then converted to glutathione equivalents (GSX) essentially by multiplying the GSSG standard concentrations by 2. The amount of GSX expressed as pmoles/well was determined using the standard curve and regression analysis.
(§4) The test compound consisted of two parts mixed in a constant ratio of 5:1. The final test mixture consisted of Test mix 1 and Test mix 2, which were received as frozen solutions. The test mixture was tested in a ratio of 5:1 COMP A in five different cell types which included the following: SK-MEL28, human hepatocytes, HUVEC, C32, and NHEM cells. Cells were seeded into 96-well plates and cultured in medium containing 10% bovine serum. Following an equilibration period of 48 hr, the cells were treated with the test compound mix at concentrations of COMP A (μg/mL)=(250:50), (125:25), (25:12.5), (12.5:2.5), (2.5:1.25), (1.25:0.25), and (0.25:0.05) for 24 hr (overnight) at 37° C. in 5% CO2. […] Following an equilibration period of 4 hr, the cells were treated with the test compound mix at concentrations of COMP A (μg/mL)=(250:50), (125:25), (25:12.5), (12.5:2.5), (2.5:1.25), (1.25:0.25), and (0.25:0.05) for 24 hr (overnight) at 37° C. in 5% CO2.
(§5) Experimental Protocol: The test compounds were shipped on dry ice for testing. The compounds were stored frozen at −80° C. until needed. Dosing solutions were prepared in complete culture medium. SK-MEL28, human hepatocytes, HUVEC, C32, and NHEM cells were used as the test systems. Cells were seeded into 96-well plates and allowed to equilibrate for approximately 48 hr. Following the equilibration period the cells were exposed to the test compound mix at concentrations of COMP A (μg/mL)=(250:50), (125:25), (25:12.5), (12.5:2.5), (2.5:1.25), (1.25:0.25), and (0.25:0.05). […] Following the exposure period, the cells or their supernatant (culture medium) were analyzed for changes in cell proliferation, membrane leakage, mitochondrial function, oxidative stress, and apoptosis. The resultant exposure concentration response curves were graphed and analyzed for determining the concentration that produced a half maximal response or TC50.

SK-MEL28 cells = assay: Intracellular total glutathione (GSH)
Method: as §1, §2, §3, §4, §5

BAX = assay: bDNA analysis of mRNA in rat cardiomyocytes; assay type: cell-based; details: after 1 hr at 10 μM
Method: (§6) Bcl2 is often induced in response to BAX a protein that promotes apoptosis.
(§7) […] Plates were mixed using a DPC 5 Micromix plate shaker at 37° C. for 15-30 minutes to ensure complete lysis of cells. Cell lysis was confirmed using a Nikon inverted microscope. Plates were stored at −80° C. until further analysis.
(§8) bDNA Analysis (Day 1): All solutions were prepared fresh on the day of analysis. Quantigene® bDNA kit components were brought to room temperature prior to use. Chemicals not supplied by Genospectra were obtained from Sigma-Aldrich.
(§9) On the day of analysis, Target Probe Sets were prepared for probe gene sets by adding 25 μL of each probe set component (CE, LE, BL) to 425 μL stock lysis solution using the following probe set concentrations: CE (50 fmol/μL), LE (200 fmol/μL), BL (100 fmol/μL).
(§10) Cell lysis plates were removed from freezer storage and thawed. […] Next, 10 μL of the appropriate Target Probe Set (PS2) was added to each appropriate well of the Capture Plate. Plates were tightly sealed using a plate sealer and incubated at 53° C. for 16-20 hr (overnight).
(§11) bDNA Analysis (Day 2): Wash buffer was prepared in ultra-pure water using 0.1×Saline-Sodium Citrate (SSC) and 0.03% Lithium Lauryl Sulfate (LLS). Amplifier working solution was prepared by adding 10 μL Amplifier to 10 mL Amplifier Diluent per plate.
(§12) Plates were removed from incubator and washed three times with 300 μL wash buffer. […]

Bcl2 = assay: bDNA analysis of mRNA in rat cardiomyocytes; assay type: cell-based; details: after 6 hr at 10 μM
Method: as §6, §7, §8, §9, §10, §11, §12

[2] = SK-MEL28, 24 HR, COMP A (LOW) / controls #2
[3] = SK-MEL28, 72 HR, COMP A (LOW) / controls #2

Row | SMILES | CC50 at 24 h (MTT reduction; human hepatocytes) [µM] | CC50 at 72 h [1] [µM] | Percent Change in Total GSH (SK-MEL28 cells; SK-MEL28, 24 HR) [%] | Percent Change in Total GSH (SK-MEL28 cells; [2]) [%] | Percent Change in Total GSH (SK-MEL28 cells; [3]) [%] | BAX increase (BAX) [fold] | Bcl2 induction (Bcl2) [fold] | CC50 at 24 h (MTT reduction; human, C32 cells, C32, 24 HR) [µM] | CC50 at 24 h (MTT reduction; human, HUVEC) [µM] | CC50 at 24 h ([1]; SK-MEL28 cells) [µM] | CC50 at 72 h ([1]; SK-MEL28 cells) [µM]
1 | C=C(C)[C@H]1Cc2c(ccc3c2O[C@@H]2COc4cc(OC)c(OC)cc4[C@@H]2C3=O)O1 [ROTENONE, Rotenone] | 3 | 0.1 | 52.8 | 49.9 | 85.1 |  |  |  |  |  | 
2 | COc1cccc2c1C(=O)c1c(O)c3c(c(O)c1C2=O)C[C@@](O)(C(=O)CO)C[C@@H]3O[C@H]1C[C@H](N)[C@H](O)[C@H](C)O1 [ADRIAMYCIN, Adriamycin] |  |  |  |  |  | 3 | 6 |  |  |  | 
3 | CC[C@@]1(O)C(=O)OCc2c1cc1n(c2=O)Cc2cc3ccccc3nc2-1 [CAMPTOTHECIN, Camptothecin] |  |  | −46.0 | −57.9 | −88.8 |  |  | 213 | 41 | 10 | 0.1
